ChEMBL document CHEMBL5214976, “Design, synthesis and anti-tumor activity studies of novel pyrido[3, 4-d]pyrimidine derivatives” (Bioorg Med Chem Lett, 2022)
Active and inactive are the calls of the source. The rule behind the calls is not given here.

Key:
HepG2 [1] = assay: Antitumor activity human HepG2 cells assessed as inhibition of cell proliferation incubated for 72 hrs by MTT assay; assay type: functional, cell-based; settings: HepG2, 72 h
PC-3 = assay: Antitumor activity against human PC-3 cells assessed as inhibition of cell proliferation incubated for 72 hrs by MTT assay; assay type: functional, cell-based; settings: PC-3, 72 h
MGC-803 [2] = assay: Antitumor activity human MGC-803 cells assessed as inhibition of cell proliferation incubated for 72 hrs by MTT assay; assay type: functional, cell-based; settings: MGC-803, 72 h
MGC-803 [3] = assay: Potency index, ratio of 5-fluorouracil IC50 to test compound IC50 for antiproliferative activity against human MGC-803 cells assessed as inhibition of cell proliferation incubated for 72 hrs by MTT assay; assay type: functional
HepG2 [4] = assay: Potency index, ratio of 5-fluorouracil IC50 to test compound IC50 for antiproliferative activity against human HepG2 cells assessed as inhibition of cell proliferation incubated for 72 hrs by MTT assay; assay type: functional
MGC-803 [5] = assay: Induction of apoptosis in human MGC-803 cells assessed as viable cells at 0.5 uM by Annexin V-FITC/PI staining based flow cytometric analysis (reference value: 95.0 %); assay type: functional; settings: read-out: Activity
MGC-803 [6] = assay: Induction of apoptosis in human MGC-803 cells assessed as early apoptotic cells at 0.25 uM by Annexin V-FITC/PI staining based flow cytometric analysis (reference value: 1.8 %); assay type: functional
MGC-803 [7] = assay: Induction of apoptosis in human MGC-803 cells assessed as necrotic cells at 0.25 uM by Annexin V-FITC/PI staining based flow cytometric analysis (reference value: 0.4 %); assay type: functional
MGC-803 [8] = assay: Induction of apoptosis in human MGC-803 cells assessed as increase in PARP protein expression by Western blot analysis; assay type: functional, cell-based; settings: dose 0.25-0.75 µM, DDE = dose-dependent effect
MGC-803 [9] = assay: Induction of apoptosis in human MGC-803 cells assessed as necrotic cells at 0.5 uM by Annexin V-FITC/PI staining based flow cytometric analysis (reference value: 0.4 %); assay type: functional
MGC-803 [10] = assay: Induction of apoptosis in human MGC-803 cells assessed as increase in Bid protein expression by Western blot analysis; assay type: functional, cell-based; settings: dose 0.25-0.75 µM, DDE = dose-dependent effect
MGC-803 [11] = assay: Induction of cell cycle arrest in human MGC-803 cells assessed as accumulation of cells at G1/S phase by measuring decrease in CycD1 protein expression at 0.25 to 0.75 uM by Western blot analysis; assay type: functional, cell-based; settings: dose 0.25-0.75 µM
MGC-803 [12] = assay: Induction of apoptosis in human MGC-803 cells assessed as total apoptotic cells at 0.75 uM by Annexin V-FITC/PI staining based flow cytometric analysis (reference value: 4.6%); assay type: functional
MGC-803 [13] = assay: Induction of apoptosis in human MGC-803 cells assessed as viable cells at 0.25 uM by Annexin V-FITC/PI staining based flow cytometric analysis (reference value: 95.0 %); assay type: functional; settings: read-out: Activity
MGC-803 [14] = assay: Induction of apoptosis in human MGC-803 cells assessed as total apoptotic cells at 0.25 uM by Annexin V-FITC/PI staining based flow cytometric analysis (reference value: 4.6%); assay type: functional
MGC-803 [15] = assay: Induction of apoptosis in human MGC-803 cells assessed as total apoptotic cells at 0.5 uM by Annexin V-FITC/PI staining based flow cytometric analysis (reference value: 4.6%); assay type: functional
MGC-803 [16] = assay: Induction of apoptosis in human MGC-803 cells assessed as early apoptotic cells at 0.75 uM by Annexin V-FITC/PI staining based flow cytometric analysis (reference value: 1.8 %); assay type: functional
MGC-803 [17] = assay: Induction of apoptosis in human MGC-803 cells assessed as late apoptotic cells at 0.5 uM by Annexin V-FITC/PI staining based flow cytometric analysis (reference value: 2.8 %); assay type: functional
MGC-803 [18] = assay: Induction of apoptosis in human MGC-803 cells assessed as early apoptotic cells at 0.5 uM by Annexin V-FITC/PI staining based flow cytometric analysis (reference value: 1.8 %); assay type: functional
MGC-803 [19] = assay: Induction of apoptosis in human MGC-803 cells assessed as viable cells at 0.75 uM by Annexin V-FITC/PI staining based flow cytometric analysis (reference value: 95.0 %); assay type: functional; settings: read-out: Activity
MGC-803 [20] = assay: Induction of apoptosis in human MGC-803 cells assessed as late apoptotic cells at 0.75 uM by Annexin V-FITC/PI staining based flow cytometric analysis (reference value: 2.8 %); assay type: functional
MGC-803 [21] = assay: Induction of apoptosis in human MGC-803 cells assessed as necrotic cells at 0.75 uM by Annexin V-FITC/PI staining based flow cytometric analysis (reference value: 0.4 %); assay type: functional
MGC-803 [22] = assay: Induction of apoptosis in human MGC-803 cells assessed as late apoptotic cells at 0.25 uM by Annexin V-FITC/PI staining based flow cytometric analysis (reference value: 2.8 %); assay type: functional
MGC-803 [23] = assay: Antiproliferative activity against human MGC-803 cells assessed as inhibition of cell proliferation incubated for 48 hrs by MTT assay; assay type: functional, cell-based; settings: MGC-803, 48 h

| SMILES | IC50 (HepG2 [1]) [µM] | IC50 (PC-3) [µM] | IC50 (MGC-803 [2]) [µM] | also measured |
| --- | --- | --- | --- | --- |
| C#CCSc1nc(NCCC(C)C)c2ccncc2n1 | > 80 | > 80 | > 80 |  |
| C#CCSc1nc(Nc2ccccc2O)c2ccncc2n1 | > 80 | 18.7 | 21 |  |
| C#CCSc1nc(Nc2ccc(Cl)cc2)c2ccncc2n1 | 36.7 | 19 | 16.4 |  |
| C#CCSc1nc(N2CCN(C)CC2)c2ccncc2n1 | > 80 | > 80 | > 80 |  |
| C#CCSc1nc(Nc2cccc(O)c2)c2ccncc2n1 | 29.5 | > 80 | 15.7 |  |
| C#CCSc1nc(Nc2ccc(OC)cc2)c2ccncc2n1 | > 80 | 15.1 | > 80 |  |
| C#CCSc1nc(Nc2ccc(C)cc2)c2ccncc2n1 | 6.17 | 15.7 | 8.09 |  |
| C#CCSc1nc(Nc2ccc(Br)cc2)c2ccncc2n1 | 56.2 | 26 | 26 |  |
| C/C=C/Sc1nc(Nc2cccc(OC)c2)c2ccncc2n1 | 18.1 | 6.79 | 1.03 |  |
| C#CCSc1nc(Nc2cccc(OC)c2)c2ccncc2n1 | 0.92 | 17.1 | 2.07 | Ratio IC50 (MGC-803 [3]): 3; Ratio IC50 (HepG2 [4]): 30 |
| O=c1[nH]cc(F)c(=O)[nH]1 [FLUOROURACIL] | 29.8 | 15.1 | 7.21 |  |
| COc1cccc(Nc2nc(SCC3CCCCC3)nc3cnccc23)c1 | 32.8 | 27.5 | 23.7 |  |
| C#CCSc1nc(Nc2cccc(Cl)c2)c2ccncc2n1 | 1.09 | 56.5 | 2.19 |  |
| C#CCSc1nc(NCCC#N)c2ccncc2n1 | > 80 | > 80 | > 80 |  |
| C#CCSc1nc(Nc2ccc(O)cc2)c2ccncc2n1 | > 80 | > 80 | > 80 |  |
| C#CCSc1nc(N2CCN(Cc3ccccc3)CC2)c2ccncc2n1 | > 80 | > 80 | > 80 |  |

| SMILES | IC50 (HepG2 [1]) [µM] | IC50 (PC-3) [µM] | IC50 (MGC-803 [2]) [µM] | also measured |
| --- | --- | --- | --- | --- |
| C#CCSc1nc(Nc2ccccc2Cl)c2ccncc2n1 | 17.2 | > 80 | 27.6 |  |
| C#CCSc1nc(Nc2ccccc2)c2ccncc2n1 | 29.4 | > 80 | 16.2 |  |
| C#CCSc1nc(Nc2ccccc2OC)c2ccncc2n1 | 4.53 | > 80 | 3.44 |  |
| COc1cccc(Nc2nc(SCC3CC3)nc3cnccc23)c1 | 24.9 | 14.8 | 1.34 |  |
| C#CCSc1nc(N2CCSCC2)c2ccncc2n1 | > 80 | > 80 | > 80 |  |
| CCSc1nc(Nc2cccc(OC)c2)c2ccncc2n1 | 10.7 | 7.15 | 0.59 | viability at 0.5 µM (MGC-803 [5]): 71.9%; Activity (MGC-803 [6]): 6.8%; Activity (MGC-803 [7]): 0.2%; Activity (MGC-803 [8]): Dde; Activity (MGC-803 [9]): 0.5%; Activity (MGC-803 [10]): Dde; Activity (MGC-803 [11]): Active; Activity (MGC-803 [12]): 75.7%; viability at 0.25 µM (MGC-803 [13]): 90%; Activity (MGC-803 [14]): 9.8%; Activity (MGC-803 [15]): 27.6%; Activity (MGC-803 [16]): 38.9%; Activity (MGC-803 [17]): 11.6%; Activity (MGC-803 [18]): 16%; viability at 0.75 µM (MGC-803 [19]): 24.1%; Activity (MGC-803 [20]): 36.8%; Activity (MGC-803 [21]): 0.2%; Activity (MGC-803 [22]): 3% |
| C#CCSc1nc(N2CCN(CC)CC2)c2ccncc2n1 | > 80 | > 80 | 70.6 |  |
| C#CCSc1nc(Nc2ccc(Cl)cc2Cl)c2ccncc2n1 | 11 | 30.4 | 25.5 |  |
| C#CCSc1nc(Nc2cc(OC)c(OC)c(OC)c2)c2ccncc2n1 | 14.2 | 30.7 | 5.68 |  |
| CCCSc1nc(Nc2cccc(OC)c2)c2ccncc2n1 | 17.3 | 15.3 | 1.95 |  |
| Cc1cc(Cc2nc(C)c3ccccc3n2)n2ncnc2n1 |  |  |  | IC50 (MGC-803 [23]): 8.28 µM |
| C#CCSc1nc(Nc2ccc(F)cc2)c2ccncc2n1 | 10.8 | 17.3 | 15.8 |  |
| C#CCSc1nc(N2CCOCC2)c2ccncc2n1 | > 80 | > 80 | > 80 |  |
| C#CCSc1nc(Nc2ccc([N+](=O)[O-])cc2)c2ccncc2n1 | > 80 | > 80 | > 80 |  |
| C#CCSc1nc(N2CCN(C(=O)OC(C)(C)C)CC2)c2ccncc2n1 | 55.9 | 47.5 | > 80 |  |
